This is an account of results in patent US20200045983A1, “PROMOTER FOR LEGUMINOUS PLANT GROWTH” (KAO CORPORATION, priority 2017, published 2020).

Experiment [1] concerns soybean (Glycine max). Description: Effect of soyasaponin Bb on soybean growth in culture soil (Example 1). The format is in vivo. As to conditions: approx. 0.3 ppm in culture soil, 24 days after sowing. As to the method:
Each Leonard jar (Soil Science and Plant Nutrition, 1983, 29: 97-100) filled with approximately 65 g of culture soil (Takii water-containing cell culture soil TM-1, Takii & Co., Ltd.) was irrigated with 100 mL of tap water. Then, two seeds of soybean (cultivar “Ryokuheki”, Kaneko Seeds Co., Ltd.) were sown by burying at a depth of approximately 1 cm from the culture soil surface. 1 mL of a solution of 20 μM soyasaponin Bb (soyasaponin I, ChromaDex, Inc.) dissolved in 50 mM TAPS buffer (pH 7.7) was added dropwise onto the culture soil covering the seeds using a micropipette. The soyasaponin Bb concentration in the culture soil was approximately 0.3 ppm (ppm by mass; the same holds true for the description below). 50 mM TAPS buffer (pH 7.7) was applied as a control (soyasaponin Bb non-application plot) in the same way as above.
Plant cultivation was performed in a plant growth chamber (LPH-350SP, Nippon Medical & Chemical Instruments Co., Ltd.). The light conditions were set to 16-hour light (light intensity: 130 μmol/m^2/s)/8-hour dark. The temperature was set to 26° C. for light and 20° C. for dark, and the humidity was set to 50%. Water supply was performed appropriately (approximately once per 7 to 10 days) by the addition of tap water in an appropriate amount to the lower part of the jar. 24 days after the sowing, growth indexes (foliar age, plant height, the number of lateral buds, above-ground part fresh weight, and underground part fresh weight) were measured. Each growth index was obtained as to each of the soyasaponin Bb non-application plot (control) and the soyasaponin Bb application plot by determining a mean of two plant individuals in each jar, and subsequently calculating a mean of four jars (n=4). The Student's t test was used to test the significant difference between the soyasaponin Bb application plot and the non-application plot.

For experiment [2], the system named is soybean (Glycine max). Description: Effect of soyasaponin Bb on soybean growth, in combination with root nodule bacterium material (Example 2). Type of experiment: in vivo. As to conditions: for foliar age among the three plots / plant height among the three plots / above-ground part fresh weight vs only the root nodule bacterium material / root nodule weight vs only the root nodule bacterium material / number of lateral buds / increase in the number of root nodules vs only the root nodule bacterium material: 1 mL of 20 μM solution, 24 days; for above-ground part fresh weight vs only the root nodule bacterium material: no significant change; for root nodule weight vs only the root nodule bacterium material: no significant difference; for number of lateral buds: rarely seen in non-application plot; for increase in the number of root nodules vs only the root nodule bacterium material: significant only for genistein. As to the method:
Each Leonard jar filled with culture soil (Takii water-containing cell culture soil TM-1, Takii & Co., Ltd.) was irrigated with 100 mL of tap water. Then, a root nodule bacterium material (“Dr Mametaro®” (Idemitsu Kosan Co., Ltd.) was distributed at a thickness on the order of 5 mm onto the culture soil in the jar using a spatula. Two seeds of soybean (cultivar “Ryokuheki”, Kaneko Seeds Co., Ltd.) were sown by burying at a depth of approximately 1 cm from the culture soil surface. 1 mL of a solution of 20 μM soyasaponin Bb (soyasaponin I, ChromaDex, Inc.) dissolved in 50 mM TAPS buffer (pH 7.7) was added dropwise onto the culture soil covering the seeds using a micropipette. The soyasaponin Bb concentration in the culture soil was approximately 0.3 ppm. Only 1 mL of 50 mM TAPS buffer as a negative control and 1 mL of 20 μM genistein (Gen) solution as a positive control of root nodule formation promotion were applied in the same way as above (for the root nodule formation-promoting effect of genistein, see: Plant and Soil, 1997, 192: 141-151; and Secretions and Exudates in Biological Systems 27-48, Signaling and Communication in Plants 12, Springer-Verlag Berlin Heidelberg, 2012).
Plant cultivation was performed under the same conditions as in Example 1. 24 days after the sowing, growth indexes (foliar age, plant height, the number of lateral buds, above-ground part fresh weight, underground part fresh weight, the number of root nodules, and root nodule fresh weight) were measured. Each growth index was obtained as to each test plot by determining a mean of two plant individuals in each jar, and subsequently calculating a mean of four jars (n=4). The Tukey-Kramer method was used to test the significant difference among the plots.

A further experiment has as its system lettuce (Lactuca sativa). As to conditions: Non Patent Literatures 7 to 10; cited from earlier work.
In experiment [3] the test system is soybean (Glycine max). The experiment in a line: Effect of saponin formulation and iron phosphate in combination on soybean yield (Example 10). The format is in vivo. The following applies: 50 mg saponin formulation and/or 0.75 mg iron(III) phosphate tetrahydrate per pot, irrigation, 86 days. As to the method: “Ryokuheki” (Kaneko Seeds Co., Ltd.) was used as soybean seeds. Each Wagner pot of 1/5,000 a was filled with approximately 4 L of culture soil (Takii water-containing cell culture soil, intermedium-acting fertilizer effect type:expanded vermiculite=1:1 (volume ratio)), and three seeds were sown at a depth of approximately 1 cm from the culture soil surface. 50 mg of a saponin formulation (“soybean saponin 80”; AccessOne Co., Ltd.), 0.75 mg of iron(III) phosphate tetrahydrate (Junsei Chemical Co., Ltd.), and a mixture thereof were each suspended in 100 mL of tap water, and the culture soil surface was irrigated with each suspension (“saponin plot”, “iron phosphate plot” and “combination plot”, respectively; both the concentrations of the saponin formulation of the combination plot and the saponin plot in the culture soil were approximately 12.5 ppm and corresponded to approximately 6.1 ppm in terms of the concentration of group B soyasaponin calculated from quantification results (Table 7) in Production Example 1). […] 86 days after the sowing, pods (the pods include grains; the same holds true for the description below) were harvested, and a pod fresh weight per plant (pot) and a pod fresh weight per pod (average weight per pod) were measured (n=7 only for the combination plot, and n=8 for the other plots). […]

Take `C[C@@H]1O[C@@H](O[C@H]2[C@H](O[C@H]3[C@H](O[C@H]4CC[C@@]5(C)[C@@H](CC[C@]6(C)[C@@H]5CC=C5[C@@H]7CC(C)(C)C[C@@H](O)[C@]7(C)CC[C@]56C)[C@@]4(C)CO)O[C@H](C(=O)O)[C@@H](O)[C@@H]3O)O[C@H](CO)[C@H](O)[C@@H]2O)[C@H](O)[C@H](O)[C@H]1O` [soyasaponin Bb]: in the experiment with soybean (Glycine max) [1], the “foliar age vs non-application plot” value is “did not differ significantly” and the “plant height vs non-application plot” value is listed as “did not differ significantly”. Moreover, in the experiment on soybean (Glycine max) [1] (statistically significant), the “increase in the number of lateral buds with respect to the non-application plot” value is listed as “approximately 2.7 times” and the “increase in underground part fresh weight with respect to the non-application plot” value is recorded as “approximately 2.2 times”. The “increase in above-ground part fresh weight with respect to the non-application plot” value in the experiment with soybean (Glycine max) [1] (tendency, no significant difference) is given as “approximately 1.1 times”. Also, the “increase in underground part fresh weight with respect to only the root nodule bacterium material” value with soybean (Glycine max) [2] (1 mL of 20 μM solution (approx. 0.3 ppm in culture soil), 24 days after sowing, statistically significant) is recorded as “approximately 1.5 times”. For the same molecule, in the experiment with soybean (Glycine max) [2], the “foliar age among the three plots” value is listed as “did not differ significantly”, the “plant height among the three plots” value is reported as “did not differ significantly”, the “above-ground part fresh weight vs only the root nodule bacterium material” value is given as “tendency toward increase” and the “root nodule weight vs only the root nodule bacterium material” value is reported as “tendency toward increase”. Also, in the experiment on soybean (Glycine max) [2], the “number of lateral buds” value was “on average one per individual” and the “increase in the number of root nodules vs only the root nodule bacterium material” value is recorded as “approximately 1.3 times”. Further, the lettuce radicle elongation result with lettuce (Lactuca sativa) was “relatively weak or was not seen”.
`O=c1c(-c2ccc(O)cc2)coc2cc(O)cc(O)c12` [genistein, reference compound]: in the experiment with soybean (Glycine max) [2], the “foliar age among the three plots” value is reported as “did not differ significantly”, the “plant height among the three plots” value is listed as “did not differ significantly”, the “above-ground part fresh weight vs only the root nodule bacterium material” value is recorded as “tendency toward increase” and the “root nodule weight vs only the root nodule bacterium material” value was “tendency toward increase”. Besides, in the experiment with soybean (Glycine max) [2], the “number of lateral buds” value is given as “on average one per individual” and the “increase in the number of root nodules vs only the root nodule bacterium material” value was “approximately 1.7 times”.
As for `CC1=C(O)C(=O)C[C@H](O[C@@H]2CC(C)(C)C[C@H]3C4=CC[C@@H]5[C@@]6(C)CC[C@H](O[C@@H]7O[C@H](C(=O)O)[C@@H](O)[C@H](O)[C@H]7O[C@@H]7O[C@H](CO)[C@H](O)[C@H](O)[C@H]7O[C@@H]7O[C@@H](C)[C@H](O)[C@@H](O)[C@H]7O)[C@](C)(CO)[C@@H]6CC[C@@]5(C)[C@]4(C)CC[C@@]23C)O1` [soyasaponin βg, reference compound], the lettuce radicle elongation entry in the experiment with lettuce (Lactuca sativa) is recorded as “promoted”.
For the molecule `O.O.O.O.O=P([O-])([O-])[O-].[Fe+3]` [iron phosphate, iron(III) phosphate tetrahydrate], the “increase in pod fresh weight per pod with respect to the non-application plot” value in the experiment with soybean (Glycine max) [3] (significant (5% or less)) was “approximately 10%”. Also, in the experiment with soybean (Glycine max) [3] (significant only for combination), the “increase in pod fresh weight per plant with respect to the non-application plot” value is reported as “approximately 10%”.
